US20240246946A1, “MODULATORS OF TREX1” (Constellation Pharmaceuticals, Inc., priority 2021, published 2024)

How the values were obtained:
full length mouse TREX1 = molecular target: T1, full length mouse TREX1 (Mus musculus, UniProt Q91XB0); assay: mTREX1 Biochemical Assay (fluorescence, dsDNA substrate degradation); conditions: biochemical, read-out: mTREX1 IC50
T1 construct: N-terminally His-Tev tagged full length mouse TREX1; made in house; host or cells: E. coli
T1 sequence (Q91XB0 1-314): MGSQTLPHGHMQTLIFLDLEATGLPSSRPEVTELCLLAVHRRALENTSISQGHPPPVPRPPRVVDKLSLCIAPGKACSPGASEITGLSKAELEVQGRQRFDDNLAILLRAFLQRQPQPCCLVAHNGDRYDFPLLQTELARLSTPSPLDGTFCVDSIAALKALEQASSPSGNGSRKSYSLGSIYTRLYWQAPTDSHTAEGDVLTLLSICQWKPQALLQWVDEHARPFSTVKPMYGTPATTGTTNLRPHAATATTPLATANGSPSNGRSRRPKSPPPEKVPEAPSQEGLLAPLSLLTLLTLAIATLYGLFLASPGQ
In short: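 Reaction run 18 h at 25° C. with 60 nM TEX615/quencher-labelled dsDNA and 6 pM mouse TREX1 in Tris buffer (pH 7.4, 5 mM MgCl2, 1.0% DMSO), enzyme having sat 4 h with compound across 10 concentrations. EDTA quench; substrate degradation measured as fluorescence increase.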

full length human TREX1 = molecular target: T2, full length human TREX1 (Homo sapiens, UniProt Q9NSU2); assay: hTREX1 Biochemical Assay (fluorescence, dsDNA substrate degradation); conditions: biochemical, read-out: hTREX1 IC50
T2 construct: N-terminally His-Tev tagged full length human TREX1; made in house; host or cells: E. coli
T2 sequence (Q9NSU2 1-314): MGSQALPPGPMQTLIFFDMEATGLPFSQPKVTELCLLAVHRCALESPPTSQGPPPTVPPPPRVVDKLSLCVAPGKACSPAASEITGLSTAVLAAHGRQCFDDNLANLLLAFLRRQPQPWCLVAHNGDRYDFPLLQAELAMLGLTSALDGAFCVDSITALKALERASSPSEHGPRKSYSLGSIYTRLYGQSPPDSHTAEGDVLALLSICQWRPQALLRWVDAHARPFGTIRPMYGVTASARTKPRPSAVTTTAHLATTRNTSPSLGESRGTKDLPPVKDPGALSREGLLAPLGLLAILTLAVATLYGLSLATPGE
In short: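 Cleavage of 60 nM TEX615/quencher-labelled dsDNA in pH 7.4 Tris buffer with 5 mM MgCl2, 1.0% DMSO, run 18 hours at 25° C, EDTA-quenched; fluorescence read-out.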

[1] = molecular target: T3, human TREX2 (residues M44-A279) (Homo sapiens, UniProt Q9BQ50); assay: hTREX2 Biochemical Assay (fluorescence, dsDNA substrate degradation); conditions: biochemical selectivity for hTREX1 vs hTREX2
T3 construct: human TREX2 (residues M44-A279, expressed in E. coli); made in house; host or cells: E. coli
T3 sequence (Q9BQ50 44-279 isoform Q9BQ50-1): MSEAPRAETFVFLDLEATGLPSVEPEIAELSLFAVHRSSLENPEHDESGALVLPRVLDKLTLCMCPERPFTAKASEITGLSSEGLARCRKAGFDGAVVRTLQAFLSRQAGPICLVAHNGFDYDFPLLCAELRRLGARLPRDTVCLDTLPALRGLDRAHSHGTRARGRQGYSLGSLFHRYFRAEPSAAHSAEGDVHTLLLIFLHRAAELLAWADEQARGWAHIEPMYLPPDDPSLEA
In short: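 N-His-Tev E. coli enzyme (50 pM) pre-incubated with compound 4 h at 25 °C, then 60 nM TEX615/quencher dsDNA added; 18 h at 25 °C, pH 7.4 Tris buffer with 5 mM MgCl2, 1.0% DMSO. EDTA-quenched; fluorescence 570 ex/615 em from liberated fluorophore, 10-point dose-response.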

Structure (SMILES) | IC50 (full length mouse TREX1) [nM] | IC50 (full length human TREX1) [nM] | hTREX1 vs hTREX2 selectivity [1]
COCCn1ncc(C(c2cc(F)ccc2Cl)C(C)c2nc(C(=O)Nc3cnoc3)c(O)c(=O)n2C)c1C (single isomer, unassigned) [Example 108 D1E2] | > 10 | > 10 | A (A = <25 fold selective for hTREX1)
CC(c1nc(C(=O)Nc2cnoc2)c(O)c(=O)n1C)C(c1ccccc1)c1cccnc1C#N (single isomer, unassigned) [Example 155 D1E1] | > 10 | > 10 | B (B = 25 to 50-fold selective for hTREX1)
COCCn1cc(C(c2cc(F)ccc2Cl)C(C)c2nc(C(=O)Nc3cnoc3)c(O)c(=O)n2C)cn1 (single isomer, unassigned) [Example 97 D1E2] | > 10 | 1 to 10 | A (A = <25 fold selective for hTREX1)
CCn1cc(C(c2cc(F)ccc2Cl)C(C)c2nc(C(=O)Nc3cnoc3)c(O)c(=O)n2C)cn1 (single isomer, unassigned) [Example 60 D2E2] | > 10 | > 10 | A (A = <25 fold selective for hTREX1)
CC(c1nc(C(=O)Nc2cnoc2)c(O)c(=O)n1C)C(c1cnn(CCN2CCOCC2)c1)c1ccccc1C#N (single isomer, unassigned) [Example 20 D2E1] | > 10 | > 10 | B (B = 25 to 50-fold selective for hTREX1)
CC(c1nc(C(=O)Nc2cnoc2)c(O)c(=O)n1C)C(c1cnc(C(F)(F)F)cn1)c1ccccc1C#N (single isomer, unassigned) [Example 118 D1E2] | > 10 | > 10 | A (A = <25 fold selective for hTREX1)
Cc1cc(C(c2cc(F)ccc2C#N)C(C)c2nc(C(=O)Nc3cnoc3)c(O)c(=O)n2C)nn1C (single isomer, unassigned) [Example 112 D1E2] | > 10 | > 10 | A (A = <25 fold selective for hTREX1)
CC(c1nc(C(=O)Nc2cnoc2)c(O)c(=O)n1C)C(c1ccccc1C#N)c1ccnn1C (single isomer, unassigned) [Example 1 D2E2] | > 10 | > 10 | B (B = 25 to 50-fold selective for hTREX1)
Cc1ccn(C(c2cc(F)ccc2Cl)C(C)c2nc(C(=O)Nc3cnoc3)c(O)c(=O)n2C)n1 (single isomer, unassigned) [Example 146 D1E2] | > 10 | > 10 | A (A = <25 fold selective for hTREX1)
CC(c1nc(C(=O)Nc2cnoc2)c(O)c(=O)n1C)C(c1nnn(C)n1)c1ccccc1C#N (single isomer, unassigned) [Example 79 D1E1] | > 10 | > 10 | A (A = <25 fold selective for hTREX1)
CC(c1nc(C(=O)Nc2cnoc2)c(O)c(=O)n1C)C(c1cnn(C2COC2)c1)c1ccccc1C#N (single isomer, unassigned) [Example 106 D1E2] | > 10 | > 10 | A (A = <25 fold selective for hTREX1)
Cc1ncc(C(c2cc(F)ccc2C#N)C(C)c2nc(C(=O)Nc3cnoc3)c(O)c(=O)n2C)nc1C (single isomer, unassigned) [Example 124 D2E1] | > 10 | > 10 | A (A = <25 fold selective for hTREX1)
CC(c1nc(C(=O)Nc2cnoc2)c(O)c(=O)n1C)C(c1ccccc1Cl)c1nncn1C (single isomer, unassigned) [Example 152 D1E2] | > 10 | > 10 | A (A = <25 fold selective for hTREX1)
CC(c1nc(C(=O)Nc2cnoc2)c(O)c(=O)n1C)C(c1cnn(CC2COC2)c1)c1ccccc1Cl (single isomer, unassigned) [Example 88 D1E2] | > 10 | 1 to 10 | A (A = <25 fold selective for hTREX1)
CC(c1nc(C(=O)Nc2cnoc2)c(O)c(=O)n1C)C(c1cnn(CC(C)(C)C#N)c1)c1cc(F)ccc1Cl (single isomer, unassigned) [Example 99 D1E2] | 1 to 10 | 1 to 10 | B (B = 25 to 50-fold selective for hTREX1)
Cc1nnc(C(c2ccccc2Cl)C(C)c2nc(C(=O)Nc3cnoc3)c(O)c(=O)n2C)o1 (single isomer, unassigned) [Example 156 D2E1] | > 10 | > 10 | A (A = <25 fold selective for hTREX1)
CC(c1nc(C(=O)Nc2cnoc2)c(O)c(=O)n1C)C(c1ccccc1Cl)n1cc(C(F)(F)F)cn1 (single isomer, unassigned) [Example 139 D1E2] | > 10 | > 10 | A (A = <25 fold selective for hTREX1)
Cc1nnc(C(c2ccccc2Cl)C(C)c2nc(C(=O)Nc3cnoc3)c(O)c(=O)n2C)o1 (single isomer, unassigned) [Example 156 D1E2] | > 10 | > 10 | A (A = <25 fold selective for hTREX1)
CC(c1nc(C(=O)Nc2cnoc2)c(O)c(=O)n1C)C(c1cnn(CC2COC2)c1)c1ccccc1Cl (single isomer, unassigned) [Example 88 D2E2] | > 10 | > 10 | A (A = <25 fold selective for hTREX1)
COCCn1ncc(C(c2cc(F)ccc2C#N)C(C)c2nc(C(=O)Nc3cnoc3)c(O)c(=O)n2C)c1C (single isomer, unassigned) [Example 104 D2E2] | > 10 | 1 to 10 | B (B = 25 to 50-fold selective for hTREX1)
Cc1nnc(C(c2ccccc2Cl)C(C)c2nc(C(=O)Nc3cnoc3)c(O)c(=O)n2C)o1 (single isomer, unassigned) [Example 156 D2E2] | > 10 | 1 to 10 | B (B = 25 to 50-fold selective for hTREX1)
Cc1ccnn1C(c1cc(F)ccc1Cl)C(C)c1nc(C(=O)Nc2cnoc2)c(O)c(=O)n1C (single isomer, unassigned) [Example 145 D1E2] | > 10 | > 10 | A (A = <25 fold selective for hTREX1)
Cc1nn(C)cc1C(c1cc(F)ccc1C#N)C(C)c1nc(C(=O)Nc2cnoc2)c(O)c(=O)n1C (single isomer, unassigned) [Example 57 D2E1] | > 10 | 1 to 10 | C (C = >50 fold selective for hTREX1)
CCn1c(C(C)C(c2cnn(C)c2)c2ccccc2C#N)nc(C(=O)Nc2cnoc2)c(O)c1=O (single isomer, unassigned) [Example 149 D1E1] | > 10 | > 10 | A (A = <25 fold selective for hTREX1)
CC(c1nc(C(=O)Nc2cnoc2)c(O)c(=O)n1C)C(c1cnn(CCOC(F)(F)F)c1)c1cc(F)ccc1Cl (single isomer, unassigned) [Example 98 D1E2] | 1 to 10 | > 10 | A (A = <25 fold selective for hTREX1)
CC(c1nc(C(=O)Nc2cnoc2)c(O)c(=O)n1C)C(c1ccccc1Cl)c1nncn1C (single isomer, unassigned) [Example 152 D2E2] | > 10 | > 10 | A (A = <25 fold selective for hTREX1)
